Data: article PMC10053807, “Natural Lipid Extracts as an Artificial Membrane for Drug Permeability Assay: In Vitro and In Silico Characterization” (Pharmaceutics, 2023)

What was measured:
[1] = PAMPA permeability, brain polar lipid extract (BPLE) membrane; settings: for Mean logPe / Mean Pe: Brain Polar lipid extract membrane, n=3; for Mean Pe: * = not detected at acceptor side, value calculated from limit of detection; for Papp at 4 h, 100 μM: pig, PAMPA, pH 7.4
[2] = PAMPA permeability, brain total lipid extract (BTLE) membrane; settings: for Mean logPe / Mean Pe: Brain total lipid extract membrane, n=3; for Papp at 4 h, 100 μM: pig, PAMPA, pH 7.4; for Mean Pe: * = not detected at acceptor side, value calculated from limit of detection
[3] = PAMPA permeability, heart polar lipid extract (HPLE) membrane; settings: for Mean logPe / Mean Pe: Heart Polar lipid extract membrane, n=3; for Papp at 4 h, 100 μM: bovine, PAMPA, pH 7.4; for Mean Pe: * = not detected at acceptor side, value calculated from limit of detection
[4] = PAMPA permeability, heart total lipid extract (HTLE) membrane; settings: for Mean logPe / Papp at 4 h, 100 μM / Mean Pe: Heart total lipid extract membrane, n=3; for Papp at 4 h, 100 μM: bovine, PAMPA; for PAMPA permeability on HTLE: pH 7.4, 4 h, 37 °C, in words (PCA biplot, Figure 11B)
[5] = PAMPA permeability, liver polar lipid extract (LPLE) membrane; settings: for Papp at 4 h, 100 μM: bovine, PAMPA
[6] = PAMPA permeability, liver total lipid extract (LTLE) membrane; settings: for Mean logPe / Mean Pe: Liver total lipid extract membrane, n=3; for Papp at 4 h, 100 μM: bovine, PAMPA, pH 7.4; for Mean Pe: * = not detected at acceptor side, value calculated from limit of detection
[7] = pH 7.4, Mean Pe, * = not detected at acceptor side, value calculated from limit of detection
[8] = pH 7.4, Mean Pe, n=3, * = not detected at acceptor side, value calculated from limit of detection
[9] = * = not detected at acceptor side, value calculated from limit of detection

Row | Mean logPe [1] | Mean Pe [1] | Mean logPe [2] | Papp at 4 h, 100 μM [2] | Mean logPe [3] | Papp at 4 h, 100 μM [3] | Mean logPe [4] | Papp at 4 h, 100 μM [4, 7] | PAMPA permeability on HTLE [4] | Papp at 4 h, 100 μM [5, 8] | Mean logPe ([5]; n=3) | Mean logPe [6] | Papp at 4 h, 100 μM [6] | Papp at 4 h, 100 μM [1] | Mean Pe [3] | Papp at 4 h, 100 μM ([4]; pH 7.4, Mean logPe) | SMILES | also measured
1 | -5.38 | 4.23 10-6 cm/s | -5.50 | 3.23 ×10⁻⁶ cm/s | -5.35 | 4.67 ×10⁻⁶ cm/s | -5.40 | 4.26 ×10⁻⁶ cm/s | low | 12.2 ×10⁻⁶ cm/s | -4.91 | -4.66 | 22.2 ×10⁻⁶ cm/s |  |  |  | CC1=NNS(=O)(=O)c2c1ccc(Cl)c2Cl [PGY0072] | 
2 |  |  |  |  | -4.21 | 61.8 ×10⁻⁶ cm/s | -4.40 |  |  | 54.5 ×10⁻⁶ cm/s | -4.26 | -4.27 | 54 ×10⁻⁶ cm/s |  |  |  | Nc1c(Br)cc(Br)cc1CN[C@H]1CC[C@H](O)CC1 [ambroxol] | 
3 | -5.94 |  | -5.89 | 1.28 ×10⁻⁶ cm/s | < -5.89 |  | -5.91 | 1.25 ×10⁻⁶ cm/s |  | 7.1 ×10⁻⁶ cm/s | -5.17 | < -5.94 |  | 1.14 ×10⁻⁶ cm/s | < 1,28* 10-6 cm/s |  | CO/N=C(\C(=O)N[C@@H]1C(=O)N2C(C(=O)O)=C(COC(N)=O)CS[C@H]12)c1ccco1 [cefuroxime] | Mean Pe [6]: < 1,14* 10-6 cm/s
4 | -5.12 |  | -5.36 | 4.48 ×10⁻⁶ cm/s | -5.44 | 3.7 ×10⁻⁶ cm/s |  | 0.4 ×10⁻⁶ cm/s |  | 3.49 ×10⁻⁶ cm/s | -5.46 | -5.37 | 4.25 ×10⁻⁶ cm/s | 7.58 ×10⁻⁶ cm/s |  | 0.589 ×10⁻⁶ cm/s | CCn1cc(C(=O)O)c(=O)c2cc(F)c(N3CCNCC3)nc21 [enoxacin] | 
5 | < -6.48 | < 0,33* 10-6 cm/s | < -6.47 |  |  | < 0.339 ×10⁻⁶ cm/s |  |  |  |  | < -6.49 |  | < 0.331 ×10⁻⁶ cm/s |  | < 0,34* 10-6 cm/s | < 0.324 ×10⁻⁶ cm/s | NC(N)=Nc1nc(CSCCC(N)=NS(N)(=O)=O)cs1 [famotidine] | Mean Pe [2]: < 0,34* 10-6 cm/s; Mean Pe [4, 9]: < 0,33* 10-6 cm/s; Mean Pe ([5]; n=3, * = not detected at acceptor side, value calculated from limit of detection): < 0,33* 10-6 cm/s; Mean Pe [6]: < 0,33* 10-6 cm/s
6 |  |  |  |  | -4.96 |  | -5.04 |  |  | 13.2 ×10⁻⁶ cm/s |  | -4.4 | 40.1 ×10⁻⁶ cm/s |  |  |  | COCCc1ccc(OCC(O)CNC(C)C)cc1 (stereo not shown) [metoprolol] | Papp at 4 h, 100 μM ([5]; pH 7.4, Mean logPe, n=3): 19.5 ×10⁻⁶ cm/s
7 | -5.64 |  | -5.45 | 3.57 ×10⁻⁶ cm/s |  |  |  | 1.92 ×10⁻⁶ cm/s | low | 10.3 ×10⁻⁶ cm/s | -4.99 | -4.79 | 16.3 ×10⁻⁶ cm/s | 2.35 ×10⁻⁶ cm/s |  | 2.88 ×10⁻⁶ cm/s | CN1C(C(=O)Nc2ccccn2)=C(O)c2ccccc2S1(=O)=O [piroxicam] | 
8 |  | < 0,86* 10-6 cm/s |  |  |  |  |  |  |  | 2.23 ×10⁻⁶ cm/s |  |  |  |  | < 0,98* 10-6 cm/s |  | CCOC(=O)[C@H](CCc1ccccc1)N[C@@H](C)C(=O)N1[C@H](C(=O)O)C[C@@H]2CCC[C@@H]21 [ramipril] | Mean Pe [2]: < 0,86* 10-6 cm/s; Mean Pe [4, 9]: < 0,87* 10-6 cm/s

Row | SMILES | Mean logPe [1] | Mean Pe [1] | Mean logPe [2] | Papp at 4 h, 100 μM [2] | Mean logPe [3] | Papp at 4 h, 100 μM [3] | Mean logPe [4] | Papp at 4 h, 100 μM [4, 7] | PAMPA permeability on HTLE [4] | Papp at 4 h, 100 μM [5, 8] | Mean logPe ([5]; n=3) | Mean logPe [6] | Papp at 4 h, 100 μM [6] | Papp at 4 h, 100 μM [1] | Mean Pe [3] | Papp at 4 h, 100 μM ([4]; pH 7.4, Mean logPe) | also measured
9 | Cn1c(=O)c2c(ncn2C)n(C)c1=O [caffeine] | -5.53 |  | -5.71 | 1.96 ×10⁻⁶ cm/s | -5.39 | 4.19 ×10⁻⁶ cm/s | -5.59 | 2.62 ×10⁻⁶ cm/s | low | 11.3 ×10⁻⁶ cm/s | -4.95 | -4.7 | 20.3 ×10⁻⁶ cm/s | 2.97 ×10⁻⁶ cm/s |  |  | 
